Read-outs that look alike come from different tables or passages of the source.
Experiments:
[1] = tested on: Control 1 iPSCs; assay: Optimization of CHIR99021 concentration, Control 1 iPSC colonies (confluency, Pax7 staining); type: cell-based, human
Description: (§1) A confluent iPSC culture in a 35 mm dish was incubated for 5 minutes at 37° C. with 2 mg/ml collagenase IV in DMEM/F12, cut into pieces with a 23 gauge needle, detached with a cell scraper and split into a 10 cm dish with a confluency of 40%. After 5 days, differentiation into myogenic progenitor cells (MPCs) was started with myogenic differentiation medium (DMEM/F12, 1% Insulin-Transferrin-Selenium-Ethanolamine, 1% penicillin/streptomycin/L-glutamine) supplemented with 3.5 μM CHIR99021 for 5 days and changed to myogenic differentiation medium supplemented with 20 ng/ml FGF2 (Peprotech. London. UK) for 14 days. The last 16 days, cells were cultured in myogenic differentiation medium only. For FACS purification cells were detached with TrypLE and stained on ice with anti-C-MET-APC (1:50, R&D systems, Minneapolis Minn.) and anti-HNK-1-FITC (1:100, Aviv Systems Biology, San Diego. Calif.) antibodies. Prior to FACS, Hoechst (33258, Life Technologies, Carlsbad, Calif.) was added to stain live cells. The c-MET^+/Hoechst^+/Hnk-1^− fraction was sorted in MPC proliferation medium (DMEM high glucose supplemented with 10% fetal bovine serum, 1% penicillin/streptomycin/L-glutamine and 100 ng/ml FGF2) supplemented with 1× Revitacell supplement (Gibco, Waltham. Mass.). For slightly positive cultures, MPCs were sorted with a maximum sorting time of 20 minutes and pooled into a single well until amount of 20.000 for 96 well, 40.000 for 48 well or 80.000 for 24 well was reached. After 24 hours. MPCs were expanded in MPC proliferation medium or cryopreserved. Further details are described previously (van der Wal et al., 2017).
(§2) Differentiated cells were fixed by adding 1 volume of 4% paraformaldehyde (PFA) (Merck, Kenilworth, N.J.) in PBS to the medium. PFA was incubated for 10 minutes at room temperature and afterwards replaced by PBS. Fixed cells were either stored at 4° C. or directly stained. For staining, cells were permeabilized for 5 minutes with 0.1% Triton X-100 (AppliChem, Darmstadt, Germany) in PBS and blocked for 30 minutes at room temperature in blocking solution (PBS-T (0.1% Tween. Sigma Aldrich, Irvine. UK) with 3% BSA (Sigma Aldrich. Irvine, UK)). Primary antibodies (Table 5) were incubated 1 hour at room temperature and diluted into 0.1% BSA in PBS-T. The unbound first antibody was removed by washing three times for 5 minutes with PBS-T. Secondary antibodies (1:500, Alexa-Fluor-594-α-goat, Alexa-Fluor-488-α-mouse, Alexa-Fluor-594-α-rabbit, Alexa-Fluor-488-α-rabbit, Invitrogen, Carlsbad, Calif. or horse anti-mouse biotin, Vector Laboratories, Burlingame, Calif.) were incubated for 30 minutes at room temperature in PBS-T. When a secondary biotinylated antibody was used cells were washed three times for 5 minutes with PBS-T and incubated with Streptavidine 594 (1:500. Invitrogen, Carlsbad. Calif.,). The cells were subsequently washed two times for 5 minutes with PBS and incubated for 15 minutes with Hoechst (1:15000. Thermo Scientific, Waltham, Mass.). Cells were imaged in PBS.
(§3) The first step of the differentiation procedure from iPSCs into MPCs is the stimulation of the Wnt pathway with CHIR99021. In a previous study on which the current protocol was based. […] In order to define the optimal concentration of CHIR99021 we generated single cells from iPSCs, and incubated these with 10 μM CHIR99021 for 2 days, followed by the differentiation procedure highlighted in FIG. 5. […] Generating single iPSCs in feeder-based culture systems causes massive apoptosis and addition of Rock inhibitor is required (Watanabe et al., 2007). To keep the differentiation protocol applicable for feeder-dependent and feeder-free cultures we decided to further optimize the concentration of CHIR99021 on plated iPSC colonies with a range from 3 to 5 μM CHIR99021, with incubation for 4, 5, 8 or 10 days. […] To avoid toxicity, we used a concentration of 3.5 μM CHIR99021 in our final differentiation protocol.

[2] = tested on: Control 2 iPSCs; assay: Optimization of CHIR99021 concentration, Control 2 iPSC colonies (confluency, Pax7 staining); type: cell-based, human
Description: as §1, §2, §3

[3] = tested on: iPSC lines used in this study; assay: CHIR99021 optimisation for differentiation of iPSCs into myogenic progenitor cells; type: cell-based, human
Description: as §1
The first step of the differentiation procedure from iPSCs into MPCs is the stimulation of the Wnt pathway with CHIR99021. In a previous study on which the current protocol was based. […] In order to define the optimal concentration of CHIR99021 we generated single cells from iPSCs, and incubated these with 10 μM CHIR99021 for 2 days, followed by the differentiation procedure highlighted in FIG. 5. […]

[4] = tested on: pluripotent stem cells; details: cited from earlier work
[5] = cited from earlier work

With `Cc1cnc(-c2cnc(NCCNc3ccc(C#N)cn3)nc2-c2ccc(Cl)cc2Cl)[nH]1` [CHIR99021, 6-[2-[[4-(2,4-dichlorophenyl)-5-(5-methyl-1H-imidazol-2-yl)pyrimidin-2-yl]amino]ethylamino]pyridine-3-carbonitrile] the Confluency ([1]; 3 μM CHIR99021, 4 days) was 65%, the “Pax7+” value ([1]; 3 μM CHIR99021, 4 days) was “+ +” and the Confluency ([1]; 3 μM CHIR99021, 5 days) was 50%. For the same compound, the Confluency ([1]; 3 μM CHIR99021, 8 days) was 40%, the Confluency ([1]; 3 μM CHIR99021, 10 days) was 40% and the Confluency ([1]; 4 μM CHIR99021, 4 days) was 85%. The “Pax7+” value ([1]; 4 μM CHIR99021, 4 days) was “+ + +”, the Confluency ([1]; 4 μM CHIR99021, 5 days) was 100% and the “Pax7+” value ([1]; 4 μM CHIR99021, 5 days) was “+ + +”. For the same compound, the Confluency ([1]; 4 μM CHIR99021, 8 days) was 75%, the Confluency ([1]; 4 μM CHIR99021, 10 days) was 50% and the “Pax7+” value ([1]; 4 μM CHIR99021, 10 days) was “+ +”. For the same compound, the Confluency ([1]; 5 μM CHIR99021, 4 days) was 60%, the “Pax7+” value ([1]; 5 μM CHIR99021, 4 days) was “+ +” and the Confluency ([1]; 5 μM CHIR99021, 5 days) was 70%. For the same compound, the “Pax7+” value ([1]; 5 μM CHIR99021, 5 days) was “+ + +”, the Confluency ([1]; 5 μM CHIR99021, 8 days) was 0% and the Confluency ([1]; 5 μM CHIR99021, 10 days) was 0%. It also gave a Confluency ([2]; 3 μM CHIR99021, 4 days) of 95%, a Confluency ([2]; 3 μM CHIR99021, 5 days) of 100% and a Confluency ([2]; 3 μM CHIR99021, 8 days) of 90%. For the same compound, the Confluency ([2]; 3 μM CHIR99021, 10 days) was 95%, the Confluency ([2]; 4 μM CHIR99021, 4 days) was 95% and the “Pax7+” value ([2]; 4 μM CHIR99021, 4 days) was “+ +”. For the same compound, the Confluency ([2]; 4 μM CHIR99021, 5 days) was 95%, the “Pax7+” value ([2]; 4 μM CHIR99021, 5 days) was “+ +” and the Confluency ([2]; 4 μM CHIR99021, 8 days) was 95%. For the same compound, the “Pax7+” value ([2]; 4 μM CHIR99021, 8 days) was “+ +”, the Confluency ([2]; 4 μM CHIR99021, 10 days) was 85% and the Confluency ([2]; 5 μM CHIR99021, 4 days) was 95%. For the same compound, the Confluency ([2]; 5 μM CHIR99021, 5 days) was 95%, the “Pax7+” value ([2]; 5 μM CHIR99021, 5 days) was “+ +” and the Confluency ([2]; 5 μM CHIR99021, 8 days) was 50%. The Confluency ([2]; 5 μM CHIR99021, 10 days) was 30%, the “Pax7 staining, amount of Pax7-positive areas in the culture” value ([3]; control 1 and control 2 iPSCs, 4 μM CHIR99021 for 5 days, range tested 3 to 5 μM for 4, 5, 8 or 10 days) was “highest amount of Pax7-positive areas” and the “concentration resulting in higher toxicity levels and more variable response among iPSC lines” value ([3]; plated iPSC colonies) was over 4 µM. For the same compound, the “Pax7 positive cells after 40 days of differentiation” value ([3]; single cells from iPSCs, 10 μM CHIR99021 for 2 days) was “Pax7 positive cells were observed”, the “induction of paraxial mesoderm” value ([4]; 10 μM CHIR99021 incubated for 2 days, Shelton et al., 2014) was “better induction of paraxial mesoderm” and the “concentration at which toxicity was described” value ([4]; Borchin et al., 2013) was “higher than 3 μM”.
For “recombinant human GAA: recombinant human acid α-glucosidase used for enzyme replacement therapy”, the half life ([5]; in blood) is listed as 2 to 3 h and the half life ([5]; in cells) is listed as “several days”.

Source: patent US20200276334A1, “New Therapy for Pompe Disease” (Erasmus University Medical Center Rotterdam, priority 2017, published 2020)
